Blank lines part the entries; values can stand above or below the compound they belong to. Active and inactive are the calls of the source. The calls are words filed in the database; no cut-off is given here.
What was measured:
A549 [1] = assay: Antiproliferative activity against human A549 cells measured after 72 hrs by SRB assay; format: functional, cell-based
[2] = Resistant index, ratio IC50 for KB-V1 cells over IC50 for KB cells; format: functional
Tubulin (Homo sapiens) [3] = target: T1, Tubulin (Homo sapiens) (UniProt P68371+Q9H4B7+P0DPH7+P68366+Q13509+Q71U36+P04350+Q3ZCM7+P07437+P68363+Q9BQE3+Q6PEY2+Q13885+Q9BVA1+Q9BUF5); assay: Inhibition of tubulin polymerization in human A549 cells assessed as disruption of microtubule network at 200 nM measured by DAPI staining method; format: cell-based
[4] = Resistant index, ratio IC50 for KB/VCR cells over IC50 for KB cells; format: functional
K562/Adr = assay: Antiproliferative activity against human K562/Adr cells measured after 72 hrs by SRB assay; format: functional, cell-based
K562 = assay: Antiproliferative activity against human K562 cells measured after 72 hrs by SRB assay; format: functional, cell-based; settings: K562, 72 h
Tubulin (Homo sapiens) [5] = target: T1, Tubulin (Homo sapiens); assay: Inhibition of tubulin (unknown origin) polymerization incubated for 15 mins at 30 uM relative to control; format: protein-complex assay
KB = assay: Antiproliferative activity against human KB cells measured after 72 hrs by SRB assay; format: functional, cell-based
4T1 [6] = assay: Antitumor activity against mouse 4T1 cells xenografted in female BALB/c mouse assessed as T/C at 25 mg/kg, ip administered every other day for 14 days; format: functional; settings: time 14 day
KB-V1 = assay: Antiproliferative activity against human KB-V1 cells measured after 72 hrs by SRB assay; format: functional, cell-based; settings: KB-V1, 72 h
[7] = Resistant index, ratio IC50 for K562/Adr cells over IC50 for K562 cells; format: functional
A549 [8] = assay: Induction of cell cycle arrest in human A549 cells assessed as accumulation at G2/M phase at 200 nM measured propidium iodide based flow cytometry analysis; format: functional
[9] = Antiproliferative activity against human KB/VCR cells measured after 72 hrs by SRB assay; format: functional, cell-based
HL-60 = assay: Antiproliferative activity against human HL-60 cells measured after 72 hrs by SRB assay; format: functional, cell-based; settings: HL-60, 72 h
RAW264.7 = assay: Antiproliferative activity against mouse RAW264.7 cells measured after 72 hrs by SRB assay; format: functional, cell-based; settings: RAW264.7, 72 h
HeLa = assay: Antiproliferative activity against human HeLa cells measured after 72 hrs by SRB assay; format: functional, cell-based
4T1 [10] = assay: Antitumor activity against mouse 4T1 cells xenografted in female BALB/c mouse assessed as T/C at 5 mg/kg, ip administered every other day for 14 days; format: functional; settings: time 14 day
HT-1080 = assay: Antiproliferative activity against human HT-1080 cells measured after 72 hrs by SRB assay; format: functional, cell-based; settings: HT-1080, 72 h
THP-1 = assay: Antiproliferative activity against human THP-1 cells measured after 72 hrs by SRB assay; format: functional, cell-based; settings: THP-1, 72 h
[11] = Antiproliferative activity against human MRC9 cells measured after 72 hrs by SRB assay; format: functional, cell-based; settings: MRC9, 72 h
4T1 [12] = assay: Antiproliferative activity against mouse 4T1 cells measured after 72 hrs by SRB assay; format: functional, cell-based; settings: 4T1, 72 h
[13] = Toxicity in female BALB/c mouse xenografted with mouse 4T1 cells assessed as body weight loss at 5 mg/kg, ip administered every other day for 14 days and measured after 7 days; format: organism-based; settings: in vivo, 336 h, time 14 day
A549 [14] = assay: Induction of cell cycle arrest in human A549 cells assessed as accumulation at G2/M phase at 20 nM measured propidium iodide based flow cytometry analysis; format: functional
[15] = Metabolic stability in human liver microsomes assessed as intrinsic clearance at 1 uM in presence of NADPH measured by LC-MS/MS analysis; format: ADME, Microsome
A549 [16] = assay: Induction of cell morphological changes in human A549 cells at 400 nM measured after 24 hrs; format: functional, cell-based
A549 [17] = assay: Induction of cell cycle arrest in human A549 cells assessed as accumulation at G2/M phase at 400 nM measured after 24 hrs by propidium iodide based flow cytometry analysis; format: functional
Tubulin (Homo sapiens) [18] = target: T1, Tubulin (Homo sapiens); assay: Inhibition of tubulin polymerization in human A549 cells assessed as disruption of microtubule network at 200 nM measured after 24 hrs by DAPI staining method; format: cell-based
Tubulin (Homo sapiens) [19] = target: T1, Tubulin (Homo sapiens); assay: Inhibition of tubulin polymerization in human A549 cells at 3 to 100 uM; format: cell-based; settings: dose 3-100 µM

SMILES: O=C(c1ccccc1)c1ccc(-c2cccc(C(F)(F)F)c2)cc1
IC50 (A549 [1]; Homo sapiens, A549, 72 h): 6540 nM

SMILES: COc1cc(C#N)cc(-c2ccc(C(O)c3ccccc3)cc2)c1 (stereo not drawn)
IC50 (A549 [1]; Homo sapiens, A549, 72 h): 770 nM

SMILES: COc1cc(C#N)cc(-c2ccc(C(=O)c3ccccc3N)cc2)c1
IC50 (A549 [1]; Homo sapiens, A549, 72 h): 1390 nM

SMILES: COc1cc(OC)cc(-c2ccc(C(=O)c3ccccc3)c(N)c2)c1
IC50 (A549 [1]; Homo sapiens, A549, 72 h): 49 nM

SMILES: COc1cc(C#N)cc(-c2ccc(C(=O)c3ccccc3)c(NC(C)=O)c2)c1
IC50 (A549 [1]; Homo sapiens, A549, 72 h): 1030 nM

SMILES: COc1cc(OC)c(-c2ccc(C(=O)c3ccccc3)cc2)c(OC)c1
IC50 (A549 [1]; Homo sapiens, A549, 72 h): > 10000 nM

SMILES: COc1cc(C#N)cc(-c2ccc(C(=O)c3ccc(O)cc3)cc2)c1
IC50 (A549 [1]; Homo sapiens, A549, 72 h): > 10000 nM

SMILES: COc1cccc2c1C(=O)c1c(O)c3c(c(O)c1C2=O)C[C@@](O)(C(=O)CO)C[C@@H]3O[C@H]1C[C@H](N)[C@H](O)[C@H](C)O1.Cl [DOXORUBICIN HYDROCHLORIDE]
IC50 (K562/Adr): 31200 nM | IC50 (K562): 108 nM | Ratio IC50 [7]: 287.7

SMILES: COc1cc(OC)cc(-c2ccc(C(=O)c3ccccc3)cc2)c1
Ratio IC50 [2]: 1 | Ratio IC50 [4]: 0.8 | IC50 (K562/Adr): 305 nM | IC50 (K562): 137 nM | IC50 (A549 [1]; Homo sapiens, A549, 72 h): 94 nM | inhibition (Tubulin (Homo sapiens) [5]): 23.9% | IC50 (KB): 52.7 nM | Activity (A549 [16]): Active | IC50 (KB-V1): 51.7 nM | IC50 [9]: 42.5 nM | Activity (A549 [17]): Active | inhibition (Tubulin (Homo sapiens) [18]): Active | inhibition (Tubulin (Homo sapiens) [19]): Active

SMILES: COc1cc(OC)c(-c2ccc(C(=O)c3ccccc3)cc2)cc1OC
IC50 (A549 [1]; Homo sapiens, A549, 72 h): > 10000 nM

More lines, main results first:

IC50 (A549 [1]; Homo sapiens, A549, 72 h): 1640 nM
SMILES: COc1cc(C#N)cc(-c2ccc(C(=O)c3ccccn3)cc2)c1

IC50 (A549 [1]; Homo sapiens, A549, 72 h): > 10000 nM
SMILES: COc1cc(-c2ccc(C(=O)c3ccccc3)cc2)cc(OC)c1OC

IC50 (A549 [1]; Homo sapiens, A549, 72 h): 1580 nM
SMILES: CCOc1cccc(-c2ccc(C(=O)c3ccccc3)cc2)c1

IC50 (A549 [1]; Homo sapiens, A549, 72 h): > 10000 nM
SMILES: Nc1c(F)cc(Cl)cc1-c1ccc(C(=O)c2ccccc2)cc1

inhibition (Tubulin (Homo sapiens) [3]): Active | IC50 (K562/Adr): 226 nM | IC50 (K562): 144 nM | IC50 (A549 [1]; Homo sapiens, A549, 72 h): 62 nM | inhibition (Tubulin (Homo sapiens) [5]): 36.1% | IC50 (KB): 37.2 nM | IC50 (KB-V1): 36.1 nM
SMILES: COc1cc(C#N)cc(-c2ccc(C(=O)c3ccccc3)cc2)c1
Ratio IC50 [2]: 1 | Ratio IC50 [4]: 0.8 | T/C (4T1 [6]): 47.2% | Ratio IC50 [7]: 1.6 | Activity (A549 [8]): 90% | IC50 [9]: 30.4 nM

IC50 (HL-60): 6.8 nM | IC50 (K562/Adr): 7.1 nM | IC50 (K562): 7.8 nM | IC50 (HeLa): 4.2 nM | IC50 (HT-1080): 6.3 nM | IC50 (THP-1): 7.4 nM | IC50 (A549 [1]; Homo sapiens, A549, 72 h): 5 nM | IC50 (4T1 [12]): 7.7 nM | IC50 (KB): 6.3 nM | IC50 (KB-V1): 6.3 nM | CLH [15]: 0.581 mL/min/g
SMILES: COc1cc(C#N)cc(-c2ccc(C(=O)c3ccccc3)c(N)c2)c1.Cl
Ratio IC50 [2]: 1 | IC50 (RAW264.7): 7.6 nM | Ratio IC50 [4]: 1 | T/C (4T1 [10]): 29.9% | IC50 [11]: 166 nM | Activity [13]: Non-Toxic | Activity (A549 [14]): 90% | Ratio IC50 [7]: 0.9 | IC50 [9]: 6.1 nM

IC50 (A549 [1]; Homo sapiens, A549, 72 h): > 10000 nM
SMILES: COc1ccc(-c2ccc(C(=O)c3ccccc3)cc2)cc1

IC50 (A549 [1]; Homo sapiens, A549, 72 h): 3890 nM
SMILES: COc1cc(C#N)cc(-c2ccc(C(=O)c3ccccc3)cc2F)c1

IC50 (A549 [1]; Homo sapiens, A549, 72 h): 322 nM
SMILES: COc1cc(C#N)cc(-c2ccc(C(=O)c3ccnc(OC)c3)cc2)c1

IC50 (A549 [1]; Homo sapiens, A549, 72 h): 1190 nM
SMILES: COc1cc(C#N)cc(-c2ccc(C(=O)c3cccs3)cc2)c1

IC50 (A549 [1]; Homo sapiens, A549, 72 h): 17 nM
SMILES: COc1cccc(C(=O)c2ccc(-c3cc(OC)cc(OC)c3)cc2N)c1

IC50 (A549 [1]; a549): 6 nM
SMILES: COc1cc(C#N)cc(-c2ccc(C(=O)c3ccccc3)c(N)c2)c1

IC50 (A549 [1]; Homo sapiens, A549, 72 h): 1070 nM
SMILES: COc1cc(C#N)cc(-c2ccc(C(=O)c3ccc(Cl)cc3)cc2)c1

From ChEMBL document CHEMBL5154650, “Identification and optimization of biphenyl derivatives as novel tubulin inhibitors targeting colchicine-binding site overcoming multidrug resistance” (Eur J Med Chem, 2022)
